Laboratory results reported in US5981539A, “Piperidine compounds as calcium channel blockers” (Neurosearch A/S, priority 1995, dated 1999).
pIC50: −log10 of the molar value.

Tests used:
[1] = target: N-type calcium channels (chick cortical synaptosomes) (Gallus gallus, UniProt A0A8V1AJW5); experiment: 45Ca-uptake/influx into chick cortical synaptosomes (K+ depolarization, 30 mM K+); type: biochemical; conditions: 30 mM K+ minus 4 mM K+, 10 sec influx, 37° C., pH 7.4, read-out: IC50 (concentration of test substance which inhibits the specific uptake of 45Ca by 50%)
[2] = drugs that act at both sodium and calcium channels; result in words; cited from earlier work

Chain of N-type calcium channels (chick cortical synaptosomes) (A0A8V1AJW5 1-2349): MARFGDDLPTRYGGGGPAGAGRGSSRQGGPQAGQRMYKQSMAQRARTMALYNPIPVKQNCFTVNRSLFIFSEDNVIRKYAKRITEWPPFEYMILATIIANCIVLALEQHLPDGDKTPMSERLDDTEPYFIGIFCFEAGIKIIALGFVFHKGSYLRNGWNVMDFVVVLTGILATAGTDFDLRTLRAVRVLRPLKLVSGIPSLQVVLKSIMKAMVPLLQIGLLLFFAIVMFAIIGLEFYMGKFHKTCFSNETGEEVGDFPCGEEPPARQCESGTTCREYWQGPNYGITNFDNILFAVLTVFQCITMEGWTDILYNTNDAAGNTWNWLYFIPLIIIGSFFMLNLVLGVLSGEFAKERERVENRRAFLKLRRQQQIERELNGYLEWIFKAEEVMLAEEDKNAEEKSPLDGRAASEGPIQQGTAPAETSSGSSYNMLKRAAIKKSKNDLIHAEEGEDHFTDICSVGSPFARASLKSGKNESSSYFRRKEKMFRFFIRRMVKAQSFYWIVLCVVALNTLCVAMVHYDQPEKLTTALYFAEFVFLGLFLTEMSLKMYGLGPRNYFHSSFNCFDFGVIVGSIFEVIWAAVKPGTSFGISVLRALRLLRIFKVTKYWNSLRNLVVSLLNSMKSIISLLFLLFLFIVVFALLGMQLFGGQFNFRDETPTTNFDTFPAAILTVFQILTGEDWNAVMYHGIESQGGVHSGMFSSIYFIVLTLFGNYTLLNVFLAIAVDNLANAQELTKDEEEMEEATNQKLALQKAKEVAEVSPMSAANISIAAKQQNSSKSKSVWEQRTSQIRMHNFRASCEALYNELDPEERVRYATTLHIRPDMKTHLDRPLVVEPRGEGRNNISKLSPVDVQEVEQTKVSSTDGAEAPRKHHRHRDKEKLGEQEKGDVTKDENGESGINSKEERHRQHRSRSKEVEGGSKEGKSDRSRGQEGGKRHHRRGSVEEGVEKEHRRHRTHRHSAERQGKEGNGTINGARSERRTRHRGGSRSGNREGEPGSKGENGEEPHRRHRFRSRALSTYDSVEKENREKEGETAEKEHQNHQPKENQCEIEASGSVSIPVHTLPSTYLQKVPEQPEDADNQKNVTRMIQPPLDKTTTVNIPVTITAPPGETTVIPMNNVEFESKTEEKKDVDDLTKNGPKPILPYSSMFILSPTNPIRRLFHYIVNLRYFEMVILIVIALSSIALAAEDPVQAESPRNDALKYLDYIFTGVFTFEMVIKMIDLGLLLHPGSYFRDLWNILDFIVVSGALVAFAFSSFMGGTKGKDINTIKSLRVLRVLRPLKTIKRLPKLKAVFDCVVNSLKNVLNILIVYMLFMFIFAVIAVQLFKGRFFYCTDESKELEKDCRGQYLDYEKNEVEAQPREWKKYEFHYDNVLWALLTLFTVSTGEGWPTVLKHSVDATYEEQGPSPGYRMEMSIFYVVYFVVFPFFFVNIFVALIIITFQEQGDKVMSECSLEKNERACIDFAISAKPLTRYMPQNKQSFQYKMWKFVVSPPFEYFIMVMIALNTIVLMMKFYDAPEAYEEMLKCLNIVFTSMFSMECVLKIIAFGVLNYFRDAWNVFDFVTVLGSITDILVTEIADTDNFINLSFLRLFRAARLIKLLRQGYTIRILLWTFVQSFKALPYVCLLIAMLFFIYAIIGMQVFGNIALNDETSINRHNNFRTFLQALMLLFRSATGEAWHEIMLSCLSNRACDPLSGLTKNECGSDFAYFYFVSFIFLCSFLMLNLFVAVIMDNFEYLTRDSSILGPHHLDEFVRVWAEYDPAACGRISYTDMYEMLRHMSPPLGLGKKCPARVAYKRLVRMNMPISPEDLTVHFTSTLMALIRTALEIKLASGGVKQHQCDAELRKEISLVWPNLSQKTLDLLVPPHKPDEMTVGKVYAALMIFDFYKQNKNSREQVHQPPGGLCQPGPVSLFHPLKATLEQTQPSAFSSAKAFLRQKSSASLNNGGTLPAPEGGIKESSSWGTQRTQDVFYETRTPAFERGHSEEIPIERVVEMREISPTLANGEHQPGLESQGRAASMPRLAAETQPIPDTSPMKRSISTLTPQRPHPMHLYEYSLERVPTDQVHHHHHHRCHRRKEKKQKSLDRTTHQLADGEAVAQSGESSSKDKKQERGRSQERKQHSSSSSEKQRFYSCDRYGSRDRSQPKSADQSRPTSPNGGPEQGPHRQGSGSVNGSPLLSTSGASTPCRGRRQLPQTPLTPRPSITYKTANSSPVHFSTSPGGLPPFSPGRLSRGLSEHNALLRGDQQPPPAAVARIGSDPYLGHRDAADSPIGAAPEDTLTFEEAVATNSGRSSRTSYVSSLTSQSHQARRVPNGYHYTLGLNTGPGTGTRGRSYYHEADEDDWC

| Molecule | pIC50 [1] | anti-ischaemic activity in animal models [2] |
| --- | --- | --- |
| CCCCCN1CC[C@H](CCOc2cccc(C)c2C)[C@H](OC)C1 (racemic) [(±)-cis-4-[2-(2,3-Dimethylphenoxy)-ethyl]-3-methoxy-N-pentylpiperidine] | 6.05 |  |
| CCCCCN1CC[C@H](CCOc2ccccc2Cc2ccccc2)[C@H](OC)C1 (racemic) [(±)-cis-4-[2-(2-benzylphenoxy)ethyl]-3-methoxy-N-pentylpiperidine] | 6.05 |  |
| CCCCCN1CC[C@H](CCOc2ccccc2-c2ccccc2)[C@H](OC)C1 (racemic) [(±)-cis-4-[2-(2-phenylphenoxy)ethyl]-3-methoxy-N-pentylpiperidine] | 6.00 |  |
| CCCCCN1CC[C@H](CCN(c2ccccc2)c2ccccc2)[C@H](OC)C1 (racemic) [(±)-cis-4-[2-(N,N-diphenylamino)ethyl]-3-methoxy-N-pentylpiperidine] | 5.96 |  |
| CCCCCN1CC[C@@H](CCOc2ccccc2Cc2ccccc2)[C@H](OC)C1 (racemic) [(±)-trans-4-[2-(2-benzylphenoxy)ethyl]-3-methoxy-N-pentylpiperidine] | 6.22 |  |
| CCCCCN1CC[C@@H](CCOc2ccc(Cl)c(Cl)c2)[C@H](OC(C)=O)C1 (racemic) [(±)-trans-4-[2-(3,4-Dichlorophenoxy)-ethyl]-3-acetoxy-N-pentylpiperidine] | 6.30 |  |
| CCCCCN1CC[C@@H](CCOc2ccc(Cl)c(Cl)c2)[C@H](OC)C1 (racemic) [(±)-trans-4-[2-(3,4-Dichlorophenoxy)-ethyl]-3-methoxy-N-pentylpiperidine] | 6.15 |  |
| CCCCCN1CC[C@@H](CCOc2cccc(OC(C)C)c2)[C@H](OCCOC)C1 (racemic) [(±)-trans-4-[2-(3-isopropoxyphenoxy)ethyl]-3-(2-methoxy-1-ethoxy)-N-pentylpiperidine] | 5.96 |  |
| CCCCCN1CC[C@@H](CCN(c2ccccc2)c2ccccc2)[C@H](OCCOC)C1 (racemic) [(±)-trans-4-[2-(N,N-diphenylamino)ethyl]-3-(2-methoxy-1-ethoxy)-N-pentylpiperidine] | 6.30 |  |
| CCCCCN1CC[C@@H](CCN(c2ccccc2)c2ccccc2)[C@H](OC)C1 (racemic) [(±)-trans-4-[2-(N,N-diphenylamino)ethyl]-3-methoxy-N-pentylpiperidine] | 5.89 |  |
| CCCCCN1CC[C@@H](Oc2ccc(Oc3ccccc3)cc2)[C@H](OCCOC)C1 (racemic) [(±)-trans-4-[4-phenoxyphenoxy]-3-(2-methoxy-1-ethoxy)-N-pentylpiperidine] | 6.21 |  |
| CCCCCN1CC[C@@H](Oc2ccccc2OCc2ccccc2)[C@H](OCCOC)C1 (racemic) [(±)-trans-4-[(2-benzyloxyphenoxy)]-3-(2-methoxy-1-ethoxy)-N-pentylpiperidine] | 6.05 |  |
| CCCCCN1CC[C@@H](SCc2ccc(Cl)cc2)[C@H](OCCOC)C1 (racemic) [(±)-trans-4-[(4-chlorobenzyl)thio]-3-(2-methoxy-1-ethoxy)-N-pentylpiperidine] | 6.00 |  |
| CCCCCN1CC[C@@H](CCOc2ccc(Cl)c(Cl)c2)[C@@H](OCCOC)C1 (relative stereo) [(±)-cis-4-[2-(3,4-Dichlorophenoxy)-ethyl]-3-(2-methoxy)-ethoxy-N-pentylpiperidine] | 6.52 |  |
| CCCCCN1CC[C@H](CCOc2ccc(Cl)c(Cl)c2)[C@@H](OCCOC)C1 (relative stereo) [(±)-trans-4-[2-(3,4-Dichlorophenoxy)-ethyl]-3-(2-methoxy)-ethoxy-N-pentylpiperidine] | 6.40 |  |
| Cc1ccc(-c2nc(C)c(CN3CCN(C(c4ccccc4)c4ccccc4)CC3)[nH]2)cc1 [Lifarizine] |  | powerful anti-ischaemic activity |
| COc1ccc(CN2CCN(C(c3ccc(F)cc3)c3ccc(F)cc3)CC2)c(OC)c1OC [Lomerizine] |  | powerful anti-ischaemic activity |
| Lanodipine |  | powerful anti-ischaemic activity |
